Measured values: patent EP1705169A2, “Triphenylalkene derivatives and their use as selective estrogen receptor modulators” (priority 1999, dated 2001)
Read-outs that look alike come from different tables or passages of the source.

Key:
[1] = test system: MCF-7 cells; assay: cells; details: for inhibition at 1 µM / Emax / cytotoxicity at 10 µM: Homo sapiens, MCF7, 96 h; for inhibition at 1 µM: read-out: Antagonism at 1 µM (% of full antagonism); for Emax: read-out: Maximal Agonism (% of E2); for cytotoxicity at 10 µM: toxicity at 10 µmol/l, 100 = all cells dead; for Kill of MCF-7 cells (in words): highest investigated concentration (10 µM)
Procedure: For experiments involving hormone or anti-hormone treatment, the cells in exponential growth phase were precultivated in the absence of estradiol for one day. […] After the incubation period the medium was removed. The exposure to study drugs was started immediately by adding fresh medium with 5 % stripped serum. Half of the cells were grown with estradiol, half without estradiol. Study compounds (dissolved in ethanol in 0.01 M concentration and diluted with the growth medium as appropriate) were added. The final concentrations of the compounds were 1,10, and 100 nM, and 1 and 10 µM. The cells were incubated for four days.
This method allows evaluation of estrogenicity based on the ability of the compounds to stimulate the growth of the estrogen-dependent cells in the absence of estradiol. Estrogenicity was estimated by comparing the maximal growth stimulus (at any concentration) of study compound as per cent from growth stimulus by estradiol (100 % stimulus). […] At high concentrations molecules may also show toxicity. Toxicity was estimated as the fraction of dead cells (i.e. 100 % means that all cells have died during the exposure).

[2] = test system: immature female rats; assay: 3 day uterotropic assay in immature female rats (given alone and with estradiol); format: in vivo; details: for Estrogen antagonism (% inhibition of estradiol) Given with estradiol / Uterotropic effect (% of estradiol) Given without estradiol: 3 days, immature female rats
Procedure: The values are given at two dose levels, low i.e. 3―5 mg/kg and high i.e. 10―50 mg/kg. Estrogenic activity can be estimated also after a 4 weeks' treatment of ovariectomized rats based on the uterine size.

[3] = test system: ovariectomized (OVX) rats; assay: Serum cholesterol level in ovariectomized (OVX) rats after 4 weeks dosing; format: in vivo, rat; details: for Cholesterol level (mmol/1) in serum: OVX rat, n=8 (Sham 3.8 ± 0.4; OVX 4.6 ± 0.7); for Effect on cholesterol (in words): summary statement referring to Table 4
Excerpt: (§1) Compounds were given p.o. to female rats for 4 or 5 weeks daily. At the end a blood sample was taken. Serum was separated by centrifugation and frozen until analyzed for total amount of cholesterol. Bone samples were taken from vertebra and tibia. Physical strength of the bones was studied as described by Peng et al, 1994. The assessments of the bone included: • Ash weight of tibial epiphyses • Epiphyses of one tibia was carefully prepared and burned. Samples were burned to remove water and organic material. Ash weight relates to the mineral content of the bone. In addition, bone samples were taken to study the histomorphometry. In some cases the bone formation was studied by injecting tetracycline (50 mg/kg i.p. 10 days before autopsy) and calcein (20 mg/kg i.p. 3 days before autopsy). The method is based on permanent binding of tetracycline into growing bone and its detection by fluorescence (Peng et al, 1994).

[4] = test system: ovariectomized rats; details: 3.0 mg/kg peroral daily, 4 weeks, ovariectomized rats (Sham 0.497 ± 0.103; Ovariectomized 0.099 ± 0.016)
[5] = test system: ovariectomized rats; assay: Strength of femoral neck (cantilever bending test) in ovariectomized rats after 4 weeks dosing; format: in vivo; details: 3.0 mg/kg p.o., beginning one week after ovariectomy (Sham 86.7 ± 10.4; OVX 68.4 ± 8.5), * = p < 0.05 vs ovariectomized
Excerpt: as §1
The mechanical testing of bones was carried out by materials testing machine, constructed in-house at Oulu University (Technical Services Department of the Medical Faculty). The testing machine is based on lever arm principle. One end of a steel lever is fixed. […] Compressive force is measured by a temperature-compensated force sensor, which is attached to the stationary part of the compression stage. […]
The maximal load on the femoral neck was measured by the cantilever bending test. […]

[6] = test system: ovariectomized rats; assay: Ash weight of tibial epiphyses in ovariectomized rats after 4 weeks dosing; format: in vivo; details: 3.0 mg/kg p.o., beginning one week after ovariectomy (Sham 34.0 ± 2.9; OVX 32.2 ± 2.8), * = p < 0.05 vs ovariectomized
Excerpt: as §1

[7] = read-out: Maximal Cell Kill (% fraction of dead cells), With estradiol (E2)
[8] = read-out: Maximal Cell Kill (% fraction of dead cells), Without estradiol (E2)
[9] = summary statement referring to Table 2

SMILES	inhibition at 1 µM [1] [%]	Emax [1] [%]	cytotoxicity at 10 µM [1, 7] [%]	cytotoxicity at 10 µM [1, 8] [%]	Estrogen antagonism (% inhibition of estradiol) Given with estradiol ([2]; dose 3–5 mg/kg)	Uterotropic effect (% of estradiol) Given without estradiol ([2]; dose 3–5 mg/kg)	Estrogen antagonism (% inhibition of estradiol) Given with estradiol ([2]; dose 10–50 mg/kg)	Uterotropic effect (% of estradiol) Given without estradiol ([2]; dose 10–50 mg/kg)	further results
CN(C)CCOc1ccc(/C(=C(/CCCl)c2ccccc2)c2ccc(F)cc2)cc1 [No. 1, (E)-(2-{4-[4-Chloro-1-(4-fluorophenyl)-2-phenylbut-1-enyl]phenoxy}ethyl)-dimethylamine]	8	1	100	100	26 % inhibition of estradiol	42 % of estradiol	31 % inhibition of estradiol	74 % of estradiol	Estrogenic action in vitro (in words) ([1]; Table 2): no estrogenic action in vitro; Kill of MCF-7 cells (in words) ([1]; Table 2): kill MCF-7 cells (human breast cancer cells) effectively; Hormonal activity (in words) [1, 9]: weak hormonal activity; Estrogenic action in vivo (in words) ([2]; Table 3): weak estrogen in vivo
CN(C)CCOc1ccc(/C(=C(/CCCl)c2ccccc2)c2ccc(Cl)cc2)cc1 [No. 3, (E)-(2-{4-[4-Chloro-1-(4-chlorophenyl)-2-phenylbut-1-enyl]phenoxy}-ethyl)dimethylamine]	1	1	94	100	65 % inhibition of estradiol	44 % of estradiol	38 % inhibition of estradiol	54 % of estradiol	Kill of MCF-7 cells (in words) ([1]; Table 2): kill MCF-7 cells (human breast cancer cells) effectively; Hormonal activity (in words) [1, 9]: weak hormonal activity; Estrogenic and antiestrogenic action (in words) ([1]; summary statement referring to Tables 2, 3 and 4): weak estrogenic and no antiestrogenic action; Cholesterol level (mmol/1) in serum ([3]; 3 mg/kg, 4 weeks dosing): 3.1 ± 0.4 mmol/1; Effect on ovariectomy-induced increase of serum cholesterol level (in words) ([3]; OVX rats, 4 weeks dosing): can prevent this increase even at very low dose and decrease the level below the sham operated level; Effect on cholesterol (in words) [3]: decrease cholesterol; Uterine size [4]: 0.140 ± 0.006 g; Maximal load (N) of femoral neck [5]: 92.5±11.1* N; Ash weight (mg) of tibial epiphyses [6]: 36.0±3.4* mg
CN(C)CCOc1cccc(/C(=C(/CCCl)c2ccccc2)c2ccccc2)c1 [No. 33, (Z)-{2-[3-(4-Chloro-1,2-diphenylbut-1-enyl)phenoxy]ethyl}dimethylamine]	58	–	80	0	–	–	–	–	Cytotoxic action (in words) [1, 9]: weak; Effect on cholesterol (in words) [3]: decrease cholesterol
OCCCOc1ccc(/C(=C(/CCCl)c2ccccc2)c2ccccc2)cc1 [No. 35, (Z)-3-[4-(4-Chloro-1,2-diphenylbut-1-enyl)phenoxy]propan-1-ol]	14	–	50	50	35 % inhibition of estradiol	43 % of estradiol	32 % inhibition of estradiol	66 % of estradiol	–
O=C(c1ccc(OCCN2CCCCC2)cc1)c1c(-c2ccc(O)cc2)sc2cc(O)ccc12 [Raloxifene, reference compound]	–	–	–	–	90 % inhibition of estradiol	11 % of estradiol	92 % inhibition of estradiol	13 % of estradiol	Uterine size [4]: 0.141 ± 0.021 g; Maximal load (N) of femoral neck [5]: 84.2 ± 18.4* N; Ash weight (mg) of tibial epiphyses [6]: 34.9 ± 3.5 mg
CC/C(=C(\c1ccccc1)c1ccc(OCCN(C)C)cc1)c1ccccc1 [Tamoxifen, reference compound]	43	31	100	100	51 % inhibition of estradiol	44 % of estradiol	58 % inhibition of estradiol	51 % of estradiol	–
CN(C)CCOc1ccc(/C(=C(/CCCl)c2ccccc2)c2ccccc2)cc1 [Toremifene, 4-chloro-1,2-diphenyl-1-[4-[2-(N,N-dimethylamino)ethoxy]phenyl]-1-butene, Z-isomer, reference compound]	44	37	100	100	45 % inhibition of estradiol	26 % of estradiol	58 % inhibition of estradiol	44 % of estradiol	–
C[C@]12CC[C@@H]3c4ccc(O)cc4CC[C@H]3[C@@H]1CC[C@@H]2O [estradiol, reference compound]	–	–	–	–	–	–	–	–	Cholesterol level (mmol/1) in serum ([3]; 3 µg/kg, 4 weeks dosing): 4.0 ± 0.4 mmol/1
